Data as given in US10517889B2, “Modulators of SMAD7 expression” (Ionis Pharmaceuticals, Inc., priority 2017, dated 2019).
Strand notation (5' to 3'): a small letter for the sugar, then the base; units joined by * are phosphorothioate-linked, units joined directly phosphodiester-linked; [ ] holds rarer units or linkages, { } end groups; capitals alone tell only the bases. e = 2'-O-(2-methoxyethyl) (MOE); [5mC] = 5-methylcytosine; d = 2'-deoxy (DNA)

What was measured:
[1] = tested on: human SMAD7 mRNA; experiment: Antisense inhibition of human SMAD7 mRNA expression in Hep3B cells by 5-10-5 MOE gapmers, single concentration, electroporation, RT-PCR (Example 1, Study 1 and 2); type: cell-based
Method in brief: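 Hep3B cells (20,000/well) electroporated with 5-10-5 MOE gapmer at 5,000 nM or 15,000 nM for approximately 24 h. SMAD7 mRNA quantified by real-time PCR with primer probe set RTS5062 and normalized to RIBOGREEN total RNA. Values are percent inhibition relative to untreated controls.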

[2] = tested on: human SMAD7 mRNA; experiment: Dose-dependent inhibition of human SMAD7 mRNA expression in Hep3B cells (Example 3, Study 1 and 2); type: cell-based; conditions: electroporation; for % inhibition of SMAD7 mRNA expression: approximately 16 hours; for IC50: Study 1 (312.5-20000 nM)
Method in brief: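 Hep3B cells, 20,000 per well, electroporated with antisense oligonucleotide at 0.31, 1.25, 5.00 or 20.00 μM (first series) or 0.74, 2.22, 6.67 or 20.00 μM (second series). After ~16 h, SMAD7 mRNA measured by RT-qPCR (RTS5062), normalised to RIBOGREEN total RNA. Percent inhibition vs untreated cells; IC50 derived.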

[3] = electroporation, 15,000 nM antisense oligonucleotide (Study 2), 5-10-5 MOE gapmers targeting SEQ ID NO: 1 and 2
[4] = 312.5 nM, Study 1, relative to untreated control cells
[5] = Study 2, electroporation with 15,000 nM antisense oligonucleotide, 5-10-5 MOE gapmers targeting SEQ ID NO: 1 and 2
[6] = electroporation, 15,000 nM, approximately 24 hours, relative to untreated control cells, gapmers targeting SEQ ID NO: 1 and 2

Substance	% inhibition of SMAD7 mRNA expression [1, 3]	% inhibition of SMAD7 mRNA expression [2, 4]	% inhibition of SMAD7 mRNA expression ([2]; 1250.0 nM, Study 1)	% inhibition of SMAD7 mRNA expression ([2]; 5000.0 nM, Study 1)	% inhibition of SMAD7 mRNA expression ([2]; 20000.0 nM, Study 1)	% inhibition of SMAD7 mRNA expression [1, 5]	IC50 [2]	% Inhibition [1, 5]	% inhibition of SMAD7 mRNA expression [1, 6]
771418 (e[5mC]*e[5mC]*eG*e[5mC]*e[5mC]*dA*d[5mC]*d[5mC]*dG*dG*d[5mC]*d[5mC]*d[5mC]*d[5mC]*dA*eT*eG*e[5mC]*eG*e[5mC]; antisense) [compound 771418]	60%	3%	0%	0%	0%	–	–	–	–
771762 (antisense eG*eT*e[5mC]*eA*e[5mC]*d[5mC]*dA*d[5mC]*d[5mC]*dG*dA*dT*dG*d[5mC]*dA*eT*e[5mC]*e[5mC]*eA*eA) [compound 771762]	72%	0%	0%	38%	67%	–	–	–	–
771556 (antisense e[5mC]*e[5mC]*e[5mC]*eT*eT*d[5mC]*dA*dT*dA*d[5mC]*dA*d[5mC]*dT*dG*dT*eG*eT*eT*eT*eG) [compound 771556]	–	1%	0%	9%	33%	30%	> 20 µM	–	–
771711 (antisense e[5mC]*eG*e[5mC]*eA*e[5mC]*dT*dT*d[5mC]*dA*d[5mC]*dA*dG*dT*dT*d[5mC]*eA*e[5mC]*eA*eG*eG) [compound 771711]	–	17%	25%	27%	59%	–	18 µM	57%	–
771838 (antisense eG*eA*eA*e[5mC]*eT*d[5mC]*d[5mC]*dT*dG*d[5mC]*dA*dG*dG*dA*dT*eG*eA*eG*eG*eG) [compound 771838]	–	0%	24%	26%	43%	–	> 20 µM	53%	–
771397 (antisense eG*eA*eG*e[5mC]*eG*dG*d[5mC]*dG*dG*d[5mC]*dG*dG*d[5mC]*d[5mC]*d[5mC]*eG*eA*eG*eG*eG) [compound 771397]	55%	0%	0%	41%	51%	–	15 µM	–	–
771797 (antisense eG*e[5mC]*eA*e[5mC]*eA*dG*dA*d[5mC]*dT*dG*d[5mC]*d[5mC]*dA*dA*dA*eT*e[5mC]*eA*e[5mC]*eA) [compound 771797]	–	1%	0%	15%	35%	–	> 20 µM	–	62%
771583 (antisense eT*eG*e[5mC]*eT*e[5mC]*d[5mC]*dT*dG*dG*d[5mC]*dA*dG*d[5mC]*dT*dG*e[5mC]*eT*eG*eG*eG) [compound 771583]	–	0%	15%	36%	59%	57%	10 µM	–	–
771474 (antisense eG*e[5mC]*eA*eG*e[5mC]*d[5mC]*dG*dA*dT*dT*dT*dT*dG*d[5mC]*dT*e[5mC]*e[5mC]*eG*e[5mC]*eA) [compound 771474]	56%	3%	4%	21%	52%	–	17 µM	–	–
771869 (antisense eA*eG*e[5mC]*e[5mC]*eA*dA*dG*dT*dG*dT*d[5mC]*d[5mC]*dA*dT*d[5mC]*eA*eA*eG*e[5mC]*eA) [compound 771869]	–	10%	0%	24%	43%	–	> 20 µM	–	62%
